Laboratory results from patent US11590116B2 (THERAVANCE BIOPHARMA R&D IP, LLC, priority 2019, dated 2023).

Experiments:
[1] = target: T1, recombinant human ALK5 (TGF-βR1) protein (Homo sapiens, UniProt P36897); assay: Biochemical ALK5 (TGF-βR1) assay to measure pKi (LANCE Ultra ULight kinase assay); settings: apparent pKi from pIC50 by Cheng-Prusoff, read-out: ALK5 pKi (converted)
T1 construct: purchased Life Technologies PR9075A
T1 sequence (P36897 34-503): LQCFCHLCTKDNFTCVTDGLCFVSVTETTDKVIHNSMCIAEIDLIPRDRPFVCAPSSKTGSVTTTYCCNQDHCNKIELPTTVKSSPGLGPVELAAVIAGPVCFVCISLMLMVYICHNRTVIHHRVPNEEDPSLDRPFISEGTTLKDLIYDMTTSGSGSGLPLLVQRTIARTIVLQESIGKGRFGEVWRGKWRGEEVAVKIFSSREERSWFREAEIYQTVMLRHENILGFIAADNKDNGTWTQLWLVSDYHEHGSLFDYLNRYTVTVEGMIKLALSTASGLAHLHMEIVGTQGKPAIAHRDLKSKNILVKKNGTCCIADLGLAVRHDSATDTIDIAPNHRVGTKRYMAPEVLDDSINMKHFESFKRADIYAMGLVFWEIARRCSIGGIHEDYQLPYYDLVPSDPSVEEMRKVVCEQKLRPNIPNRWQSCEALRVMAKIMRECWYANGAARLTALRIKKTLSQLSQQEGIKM
How it was run: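 After a 60 min room-temperature preincubation of ALK5 with compound, phosphorylation proceeds 60 min at 37 °C on ATP addition (125 μM as 5× stock). Detection: Eu-labelled phospho-Thr1342 Topo IIα antibody in EDTA buffer, pH 7.0; emission 665 nm.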

[2] = tested on: TGF-β-stimulated SMAD3 phosphorylation in BEAS-2B cells; assay: Cellular ALK5 potency assay, inhibition of TGF-β stimulated pSMAD3 formation in BEAS-2B cells; type: cell-based; settings: Homo sapiens; inhibition of TGF-β stimulated pSMAD3 formation, BEAS-2B cells; read-out: BEAS2B pIC50 (converted)
How it was run: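 Potency is reported as pIC50, derived from concentration-dependent reduction of pSMAD3 AlphaLISA signal against TGF-β-stimulated cells without compound. BEAS-2B cells received compound for 1 h before a 30-min stimulation with 10 ng/mL TGF-β.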

Ki [1] [nM] | Compound | IC50 [2] [nM]
< 0.0316 | Cc1cccc(-c2[nH]cnc2-c2ccc3ncc(C4=CCN(Cc5ccccc5)C4)cc3c2)n1 [Compound 232, 3-(1-benzyl-2,5-dihydropyrrol-3-yl)-6-[5-(6-methyl-2-pyridyl)-1H-imidazol-4-yl]quinoline] | 25.1 to 158
< 0.0316 | Cc1cccc(-c2n[nH]cc2-c2ccc3ncc(-c4cn[nH]c4)cc3n2)n1 [Compound 233, 2-[3-(6-methyl-2-pyridyl)-1H-pyrazol-4-yl]-7-(1H-pyrazol-4-yl)-1,5-naphthyridine] | < 20
< 0.0316 | CCC(=O)Nc1cnc2ccc(-c3c[nH]nc3-c3cccc(C)n3)nc2c1 [Compound 234, N-[6-[3-(6-methyl-2-pyridyl)-1H-pyrazol-4-yl]-1,5-naphthyridin-3-yl]propanamide] | < 20
0.0398 to 0.316 | Cc1cccc(-c2n[nH]cc2-c2ccc3ncc(-c4cncc(N)n4)cc3n2)n1 [Compound 235, 6-[6-[3-(6-methyl-2-pyridyl)-1H-pyrazol-4-yl]-1,5-naphthyridin-3-yl]pyrazin-2-amine] | 25.1 to 158
0.398 to 3.16 | Cc1cccc(-c2n[nH]cc2-c2ccc3ncc(C#N)cc3n2)n1 [Compound 236, 6-[3-(6-methyl-2-pyridyl)-1H-pyrazol-4-yl]-1,5-naphthyridine-3-carbonitrile] | 25.1 to 158
< 0.0316 | CNCCn1cc(-c2cnc3ccc(-c4c[nH]nc4-c4cccc(C(F)(F)F)n4)nc3c2)cn1 [Compound 237, N-methyl-2-(4-(6-(3-(6-(trifluoromethyl)pyridin-2-yl)-1H-pyrazol-4-yl)-1,5-naphthyridin-3-yl)-1H-pyrazol-1-yl)ethan-1-amine] | 25.1 to 158
0.398 to 3.16 | Cc1cccc(-c2n[nH]c(N)c2-c2ccc3ncc(N4CCNCC4)cc3n2)n1 [Compound 238, 3-(6-methyl-2-pyridyl)-4-(7-piperazin-1-yl-1,5-naphthyridin-2-yl)-1H-pyrazol-5-amine] | 1580 to 10000
0.0398 to 0.316 | Cc1cccc(-c2n[nH]cc2-c2ccc3ncc(NCCN4CCOCC4)cc3n2)n1 [Compound 239, 6-[3-(6-methyl-2-pyridyl)-1H-pyrazol-4-yl]-N-(2-morpholinoethyl)-1,5-naphthyridin-3-amine] | 25.1 to 158
< 0.0316 | Cc1cccc(-c2n[nH]cc2-c2ccc3ncc(-c4cnn(CC(=O)O)c4)cc3n2)n1 [Compound 240, 2-[4-[6-[3-(6-methyl-2-pyridyl)-1H-pyrazol-4-yl]-1,5-naphthyridin-3-yl]pyrazol-1-yl]acetic acid] | 25.1 to 158
0.0398 to 0.316 | Cc1cccc(-c2n[nH]cc2-c2ccc3ncc(OCCN4CCN(C(C)C)CC4)cc3n2)n1 [Compound 241, 7-[2-(4-isopropylpiperazin-1-yl)ethoxy]-2-[3-(6-methyl-2-pyridyl)-1H-pyrazol-4-yl]-1,5-naphthyridine] | 200 to 1260
0.398 to 3.16 | Cc1cccc(-c2n[nH]cc2-c2ccc3ncc(-c4c(C)noc4C)cc3n2)n1 [Compound 243, 3,5-dimethyl-4-[6-[3-(6-methyl-2-pyridyl)-1H-pyrazol-4-yl]-1,5-naphthyridin-3-yl]isoxazole] | 25.1 to 158
0.0398 to 0.316 | Cc1cccc(-c2nnn(C)c2-c2ccc3ncc(NCCN4CCN(C(C)C)CC4)cc3c2)n1 [Compound 244, N-[2-(4-isopropylpiperazin-1-yl)ethyl]-6-[3-methyl-5-(6-methyl-2-pyridyl)triazol-4-yl]quinolin-3-amine] | 25.1 to 158
0.0398 to 0.316 | Cc1nc(-c2n[nH]cc2-c2ccc3ncc(-c4cnc5n4CCNC5)cc3n2)ccc1F [Compound 245, 2-[3-(5-fluoro-6-methyl-2-pyridyl)-1H-pyrazol-4-yl]-7-(5,6,7,8-tetrahydroimidazo[1,2-a]pyrazin-3-yl)-1,5-naphthyridine] | 25.1 to 158
0.0398 to 0.316 | Cc1cccc(-c2n[nH]cc2-c2ccc3ncc(-c4nc(CN5CCN(C(C)C)CC5)co4)cc3n2)n1 [Compound 246, 4-[(4-isopropylpiperazin-1-yl)methyl]-2-[6-[3-(6-methyl-2-pyridyl)-1H-pyrazol-4-yl]-1,5-naphthyridin-3-yl]oxazole] | 25.1 to 158
0.0398 to 0.316 | Cc1cccc(-c2[nH]ncc2-c2ccc3ncc(C(=O)NN)cc3n2)n1 [Compound 247, 6-[5-(6-methyl-2-pyridyl)-1H-pyrazol-4-yl]-1,5-naphthyridine-3-carbohydrazide] | 25.1 to 158
0.0398 to 0.316 | Cc1cccc(-c2n[nH]cc2-c2ccc3ncc(N4CCN[C@H](C)C4)cc3n2)n1 [Compound 249, 7-[(3R)-3-methylpiperazin-1-yl]-2-[3-(6-methyl-2-pyridyl)-1H-pyrazol-4-yl]-1,5-naphthyridine] | 25.1 to 158
< 0.0316 | Cc1cccc(-c2n[nH]cc2-c2ccc3ncc(N4CCC(N5CCOCC5)CC4)cc3n2)n1 [Compound 250, 4-[1-[6-[3-(6-methyl-2-pyridyl)-1H-pyrazol-4-yl]-1,5-naphthyridin-3-yl]-4-piperidyl]morpholine] | 25.1 to 158
0.0398 to 0.316 | Cc1cccc(-c2n[nH]cc2-c2ccc3ncc(-c4ccc(C5CCCN(Cc6ccccc6)C5)cc4)cc3n2)n1 (centres unmarked) [Compound 251, 7-[4-(1-benzyl-3-piperidyl)phenyl]-2-[3-(6-methyl-2-pyridyl)-1H-pyrazol-4-yl]-1,5-naphthyridine] | 200 to 1260
< 0.0316 | Cc1cccc(-c2[nH]cnc2-c2ccc3ncc(C4=CCC(NCc5ccccc5)CC4)cc3c2)n1 (centres unmarked) [Compound 252, N-benzyl-4-[6-[5-(6-methyl-2-pyridyl)-1H-imidazol-4-yl]-3-quinolyl]cyclohex-3-en-1-amine] | 25.1 to 158
0.0398 to 0.316 | Cc1cccc(-c2[nH]cnc2-c2ccc3ncc(C4=CCN(C(C)C)C4)cc3n2)n1 [Compound 253, 7-(1-isopropyl-2,5-dihydropyrrol-3-yl)-2-[5-(6-methyl-2-pyridyl)-1H-imidazol-4-yl]-1,5-naphthyridine] | 25.1 to 158
0.0398 to 0.316 | Cc1cccc(-c2nnn(Cc3ccccc3)c2-c2ccc3ncc(-c4cn[nH]c4)cc3c2)n1 [Compound 254, 6-[3-benzyl-5-(6-methyl-2-pyridyl)triazol-4-yl]-3-(1H-pyrazol-4-yl)quinoline] | 25.1 to 158
0.0398 to 0.316 | Cc1cccc(-c2[nH]cnc2-c2ccc3ncc(NC(=O)CC4CNC4)cc3c2)n1 [Compound 255, 2-(azetidin-3-yl)-N-[6-[5-(6-methyl-2-pyridyl)-1H-imidazol-4-yl]-3-quinolyl]acetamide] | 200 to 1260
0.0398 to 0.316 | C=C(CN1CCNCC1)c1cnc2ccc(-c3nc[nH]c3-c3cccc(C)n3)cc2c1 [Compound 256, 6-[5-(6-methyl-2-pyridyl)-1H-imidazol-4-yl]-3-[1-(piperazin-1-ylmethyl)vinyl]quinoline] | 25.1 to 158
0.0398 to 0.316 | Cc1cccc(-c2nnn(Cc3ccccc3)c2-c2ccc3ncc(N4CCCNCC4)cc3n2)n1 [Compound 257, 2-[3-benzyl-5-(6-methyl-2-pyridyl)triazol-4-yl]-7-(1,4-diazepan-1-yl)-1,5-naphthyridine] | 200 to 1260

Compound | Ki [1] [nM] | IC50 [2] [nM]
CNC1CC2CCC(C1)N2c1cnc2ccc(-c3c[nH]nc3-c3cccc(C)n3)nc2c1 (centres unmarked) [Compound 248, N-methyl-8-[6-[3-(6-methyl-2-pyridyl)-1H-pyrazol-4-yl]-1,5-naphthyridin-3-yl]-8-azabicyclo[3.2.1]octan-3-amine] | 3.98 to 31.6 | 200 to 1260
